Data from patent publication US20220047598A1, “Use of Casein Kinase 1 Inhibitors For Treating Vascular Diseases” (Qanatpharma AG, priority 2018, published 2022).
“Also recorded” adds a separate entry of the source.

What was measured:
[1] = system: mTNF reverse signaling in cremaster skeletal muscle resistance arteries; test: sTNFR1-Fc-stimulated vasoconstriction / mTNF reverse signaling in cremaster resistance arteries; set-up: species or system mouse
Procedure: (§1) Referring to FIG. 1, microvascular smooth muscle cells were cultured form mouse mesenteric arteries and ERK1/2 phosphorylation was assessed by standard western blotting. Murine cremaster skeletal muscle resistance arteries were assessed by pressure myography. mTNF reverse signaling was induced by the intrinsically active TNF type I receptor construct, sTNFR1-Fc.
(§2) Referring to FIG. 3, mouse cremaster skeletal muscle resistance arteries were isolated and cannulated for pressure myography. Stepwise increases in transmural pressure (20-100 mmHg in 20 mmHg steps) elicit myogenic vasoconstriction. […] (FIG. 3d) CKI-7 is not effective in the absence of TNF signaling (i.e., TNF knockout arteries, TNF KO). (FIG. 3e) Phenylephrine-induced vasoconstriction in TNF KO arteries is not affected by CKI-7.

[2] = system: mouse cremaster skeletal muscle resistance arteries; test: Pressure myography of isolated cremaster skeletal muscle resistance arteries: myogenic responsiveness, compound applied in vitro; conditions: for dose dependence of reduction in myogenic responsiveness: dose-response in vitro, n=4-6 vessels per dose
Procedure: as §1
Referring to FIG. 3, mouse cremaster skeletal muscle resistance arteries were isolated and cannulated for pressure myography. Stepwise increases in transmural pressure (20-100 mmHg in 20 mmHg steps) elicit myogenic vasoconstriction.
Referring to FIG. 4, mouse cremaster skeletal muscle resistance arteries were isolated and cannulated for pressure myography. Stepwise increases in transmural pressure (20-100 mmHg in 20 mmHg steps) elicit myogenic vasoconstriction.
(§3) Referring to FIG. 5, mouse cremaster skeletal muscle resistance arteries were isolated at mid-rest phase (ZT7) or mid-active phase (ZT19) and cannulated for pressure myography. One-step increases in transmural pressure (60 to 100 mmHg) elicit myogenic vasoconstriction. […] (FIG. 5c) Cremaster muscle resistance arteries underwent pressure myography and western blotting subsequently assessed ERK1/2 phosphorylation. […] (FIG. 5d) Representative western blot.
Referring to FIG. 6a to c, mice underwent myocardial infarction (ligation of the left-anterior descending coronary artery) or sham surgery. […] Cremaster skeletal muscle resistance arteries were isolated and cannulated for pressure myography.

[3] = system: ERK1/2 phosphorylation in cremaster resistance arteries; test: ERK1/2 phosphorylation by western blot in isolated cremaster resistance arteries after pressure myography; set-up: species or system mouse
Description: as §2
as §3, with “blot. (FIG. 5e) Resting diameter of the vessels is not affected by PF-670462. (FIG. 5f) Prior to administration of PF-670462, vessel health is intact as shown by robust vasoconstriction to phenylephrine. […] (FIG. 5h) Vessel health, indicated by robust phenylephrine-induced vasoconstriction, is not affected by PF-670462 administration.” for “blot.”

[4] = system: mouse cremaster skeletal muscle resistance arteries; test: Phenylephrine (agonist)-induced vasoconstriction in isolated cremaster resistance arteries; conditions: for phenylephrine-induced vasoconstriction (vessel health): wild-type arteries treated in vitro
[5] = system: mTNF reverse signaling (ERK1/2 phosphorylation) in mesenteric vascular smooth muscle cells; test: ERK1/2 phosphorylation by western blot in microvascular smooth muscle cells cultured from mouse mesenteric arteries; assay type: cell-based; conditions: for sTNFR1-Fc-induced ERK1/2 phosphorylation: microvascular smooth muscle cells, inhibitor concentration not given
Procedure: as §1
These findings were verified in cremaster skeletal muscle resistance arteries. […] Importantly, none of the above treatments affected agonist-induced vasoconstriction.
as §2

[6] = system: mTNF reverse signaling in human embryonic kidney (HEK) cells; test: mTNF reverse signaling (ERK1/2 phosphorylation) in transfected HEK cells stimulated with TNF antibody; assay type: cell-based; conditions: HEK cells transfected 24 hrs, stimulated 5 min
Description: Importantly, the cytoplasmic tail of mTNF contains the casein kinase 1 (CK1) recognition site (S(P)-X-X-S) that is removed in Trunc TNF, indicating the necessity for CK1 binding in mTNF reverse signaling.

[7] = system: heart failure (myocardial infarction) mice; test: Chronic treatment of mice after myocardial infarction (heart failure) or sham surgery; assay type: in vivo, mouse; conditions: 7 wks
Procedure: Referring to FIG. 6g to j, following myocardial infarction or sham surgery, mice were chronically treated with PF-670462 (30 mg/kg, intraperitoneal injection) or vehicle (DMSO) for 7 wks (5 days/wk). […] (FIG. 6h) HF-induced elevations in myogenic tone are normalized by chronic treatment with PF-670462. (FIG. 6i)
Phenylephrine-induced vasoconstriction is intact with chronic PF-670462 treatment. Reduced tone at lower concentrations of phenylephrine in the PF-670462-treated group is the result of changes in resting myogenic tone. (FIG. 6j) Cardiac output, the quantification of blood outflow from the heart assessed with echocardiography, is elevated with chronic PF-670462 treatment.

CK1D/E = conditions: read-out: published IC50; cited from earlier work
[8] = Mean arterial blood pressure after acute injection; assay type: in vivo, mouse; conditions: acute injection 30 mg/kg intraperitoneal, n=3 per group
[9] = system: cremaster skeletal muscle resistance arteries; test: In vivo treatment of naive mice, then pressure myography of cremaster arteries; set-up: species or system mouse; conditions: for myogenic responsiveness: naive mice, 24 hrs later, ZT7
Procedure: Referring to FIG. 6d to f, naive mice were treated with PF-670462 (30-50 mg/kg dissolved in 200 μL water, intraperitoneal injection) or vehicle (200 μL water). 24 hrs later, in mid-rest phase (ZT7), cremaster skeletal muscle resistance arteries underwent pressure myography. […] (FIG. 6e) Phenylephrine-induced vasoconstriction is not altered by in vivo application of PF-670462.

[10] = system: skeletal muscle resistance arteries; conditions: scavenging TNF; cited from earlier work
[11] = scavenging TNF; cited from earlier work
[12] = in vitro application, concentration not given
[13] = chronic treatment 30 mg/kg intraperitoneal

## NCCNS(=O)(=O)c1ccc(Cl)c2ccncc12 [CKI-7]
[1]; cremaster arteries, in vitro application
  sTNFR1-Fc-induced mTNF reverse signaling: abrogates
[1]; sTNFR1-Fc 100 ng/mL
  sTNFR1-Fc-stimulated vasoconstriction: prevented
[2]; 10 μM in vitro, transmural pressure 20-100 mmHg in 20 mmHg steps
  myogenic responsiveness: reduces myogenic responsiveness
[2]; TNF−/− (TNF KO) arteries, in vitro
  myogenic responsiveness in TNF knockout arteries: not effective
[2]
  dose dependence of reduction in myogenic responsiveness: dose-dependent reductions
[2]; [12]
  myogenic responsiveness: reduces myogenic responsiveness
[3]; isolated cremaster resistance arteries after pressure myography
  sTNFR1-Fc-stimulated ERK1/2 phosphorylation: inhibited
[4]; TNF KO arteries
  phenylephrine-induced vasoconstriction in TNF KO arteries: not affected
[4]
  phenylephrine-induced vasoconstriction (vessel health): remains intact
[5]; mesenteric vascular smooth muscle cells, inhibitor 1 μM
  ERK1/2 phosphorylation in response to sTNFRI-Fc: inhibited
[5]
  sTNFR1-Fc-induced ERK1/2 phosphorylation: abolished

## Adalimumab
[6]
  mTNF reverse signaling (ERK1/2 phosphorylation): not stimulated unless the HEK cells express a tumour necrosis factor (TNF) plasmid construct

## Nc1nccc(-c2c(-c3ccc(F)cc3)ncn2C2CCCCC2)n1 [PF-670462]
[7]; 30 mg/kg intraperitoneal, 5 days/wk
  HF-induced elevations in myogenic tone: normalized
[7]; [13]
  cardiac output (echocardiography): elevated
  phenylephrine-induced vasoconstriction: intact
CK1D/E
  IC50: 7.7 to 14 nM
[2]; 550 nM in vitro
  myogenic responsiveness: reduces myogenic responsiveness
[2]; 550 nM in vitro in bath, 8 weeks post myocardial infarction
  myogenic responsiveness in arteries from HF mice: normalizes myogenic responsiveness
[2]; 550 nM in vitro in bath, sham arteries
  myogenic tone in sham-operated mice: does not affect myogenic tone
[2]; 550 nM in vitro, 30 minutes, both HF and sham groups
  myogenic tone in arteries from HF and sham mice: attenuated to same level
[2]; 550 nM in vitro, repeated replacements of the incubating buffer
  reversibility of the reduction in myogenic responsiveness: reversible
[2]; 10 μM in vitro, ZT7, one-step pressure 60 to 100 mmHg
  myogenic responsiveness at mid-rest phase: reduces myogenic responsiveness only during the rest phase (ZT7)
[2]; 10 μM in vitro, ZT19, one-step pressure 60 to 100 mmHg
  myogenic responsiveness at mid-active phase: not during the active phase (ZT19)
[2]; ZT7, n=4-7 vessels per dose
  dose dependence of reduction in myogenic tone at mid-rest phase: dose-dependently reduces myogenic tone
[2]; ZT7/ZT19 arteries
  resting diameter of the vessels: not affected
[2]; ZT7/ZT19 arteries, before pressure stimulation
  vessel dilation: not affected
[2]
  dose dependence of reduction in myogenic responsiveness: dose-dependent decreases
[2]; [12]
  myogenic responsiveness: reduces myogenic responsiveness
[2]; wild-type (WT) arteries, compared with TNF knockout
  myogenic responsiveness in wild-type arteries: inhibits myogenic responsiveness
[8]
  mean arterial blood pressure (MAP): reduces mean arterial blood pressure
[3]; cremaster arteries isolated at ZT7 or ZT19
  ERK1/2 phosphorylation, ZT7 versus ZT19: reduces ERK1/2 phosphorylation to a greater extent during the rest phase (ZT7)
[9]; 30 mg/kg intraperitoneal
  myogenic responsiveness: reduce myogenic responsiveness
[9]; 50 mg/kg intraperitoneal
  myogenic responsiveness: reduce myogenic responsiveness
[9]; applied in vivo, dose not given
  myogenic responsiveness in isolated cremaster arteries: reduced myogenic responsiveness
[9]; in vivo application 30-50 mg/kg intraperitoneal
  phenylephrine-induced vasoconstriction: not altered
[4]; arteries from HF and sham mice, 550 nM in vitro
  phenylephrine-induced vasoconstriction: intact
[4]
  phenylephrine-induced vasoconstriction (vessel health): intact; also recorded: not affected
[5]
  sTNFR1-Fc-induced ERK1/2 phosphorylation: abolished

## Etanercept
[10]
  skeletal muscle resistance artery myogenic responsiveness: attenuates skeletal muscle resistance artery myogenic responsiveness
[11]
  systemic blood pressure: reduces systemic blood pressure

## Nc1ncnc2c1c(COc1cccc(Cl)c1)nn2C1CCOCC1 [PF-4800567]
[2]; 30 μM in vitro
  myogenic responsiveness: abrogates myogenic responsiveness
[2]
  dose dependence of reduction in myogenic responsiveness: dose-dependent reduction
[2]; fold greater than the IC50
  concentration inhibiting myogenic responses relative to the IC50: ~1000 ×
[4]; 30 μM dose, corrected to baseline tone
  reduction in phenylephrine-induced vasoconstriction after correction to baseline tone: remains after correction to baseline tone
[4]; arteries treated at the 30 μM dose
  phenylephrine-induced vasoconstriction: reduced
